# In ChEMBL document CHEMBL1201862, “PubChem BioAssay data set” (2004):
#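 1) Cells in 96-well plates. 2) Compound, 48 h, 5 concentrations. 3) Linear interpolation between surrounding doses. 4) Unreached endpoint = highest concentration. The concentration for 50% growth inhibition is given as GI50.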 Calls of active or inactive are those of the source. No stated cut-off is given here; in the data, active = GI50 up to about 1.1 µM and inactive = higher.
# Columns and labels:
# Experiment in all cases: DTP human tumour cell line panel, 48 h
# HCT-15 = system: HCT-15
# SNB-78 = system: SNB-78
# HL-60 = system: HL-60
# SF-539 = system: SF-539
# RXF 393 = system: RXF 393
# SW-620 = system: SW-620
# DU-145 = system: DU-145
# NCI-H522 = system: NCI-H522
# KM12 = system: KM12
# 786-0 = system: 786-0
# UACC-62 = system: UACC-62
# KM-20L2 = system: KM-20L2
# SF-295 = system: SF-295
# MDA-MB-435 = system: MDA-MB-435
# M14 = system: M14
# SK-MEL-28 = system: SK-MEL-28
# SF-268 = system: SF-268
# Hs-578T = system: Hs-578T
# PC-3 = system: PC-3
# OVCAR-4 = system: OVCAR-4
SMILES,GI50 (HCT-15) [µM],GI50 (SNB-78),GI50 (HL-60),GI50 (SF-539),GI50 (RXF 393),GI50 (SW-620),GI50 (DU-145),GI50 (NCI-H522),GI50 (KM12),GI50 (786-0),GI50 (UACC-62),GI50 (KM-20L2),GI50 (SF-295),GI50 (MDA-MB-435),GI50 (M14),GI50 (SK-MEL-28),GI50 (SF-268),GI50 (Hs-578T),GI50 (PC-3),GI50 (OVCAR-4)
O=C(/C=C/c1ccccc1)CCN1CCOCC1,8.57,19 µM (inactive),2.12 µM (inactive),12.1 µM (inactive),12.7 µM (inactive),5.48 µM (inactive),18.8 µM (inactive),3.87 µM (inactive),7.52 µM (inactive),6.85 µM (inactive),16 µM (inactive),15.9 µM (inactive),19 µM (inactive),15 µM (inactive),14.8 µM (inactive),11.4 µM (inactive),12 µM (inactive),27.1 µM (inactive),17.4 µM (inactive),20.9 µM (inactive)
COc1ccc(C(=O)O)c(Br)c1OCc1ccccc1,> 100,> 100 µM (inactive),> 100 µM (inactive),> 100 µM (inactive),> 100 µM (inactive),> 100 µM (inactive),,> 100 µM (inactive),> 100 µM (inactive),> 100 µM (inactive),> 100 µM (inactive),> 100 µM (inactive),> 100 µM (inactive),,> 100 µM (inactive),> 100 µM (inactive),> 100 µM (inactive),,,> 100 µM (inactive)
C/C(=N\NC(=[Se])N(C)C)c1ccccn1,0.0352,2.97 µM (inactive),< 0.01 µM (active),0.577 µM (active),0.455 µM (active),< 0.01 µM (active),1.41 µM (inactive),0.0497 µM (active),0.0234 µM (active),0.0559 µM (active),< 0.01 µM (active),< 0.01 µM (active),< 0.01 µM (active),1.11 µM (active),0.0158 µM (active),1.91 µM (inactive),0.216 µM (active),0.208 µM (active),< 0.01 µM (active),0.103 µM (active)
COC(=O)C(C#CCCCCC#CC(NC(=O)OCc1ccccc1)(C(=O)OC)C(F)(F)F)(NC(=O)OCc1ccccc1)C(F)(F)F (configuration not stated),> 100,> 100 µM (inactive),> 100 µM (inactive),> 100 µM (inactive),> 100 µM (inactive),> 100 µM (inactive),,> 100 µM (inactive),> 100 µM (inactive),> 100 µM (inactive),> 100 µM (inactive),> 100 µM (inactive),> 100 µM (inactive),,> 100 µM (inactive),> 100 µM (inactive),> 100 µM (inactive),,,> 100 µM (inactive)
Cc1ccc(SSc2ccc(C)cc2C(=O)O)c(C(=O)O)c1,,> 100 µM (inactive),> 100 µM (inactive),> 100 µM (inactive),> 100 µM (inactive),> 100 µM (inactive),,> 100 µM (inactive),> 100 µM (inactive),> 100 µM (inactive),> 100 µM (inactive),> 100 µM (inactive),> 100 µM (inactive),,,> 100 µM (inactive),> 100 µM (inactive),,,> 100 µM (inactive)
CC(=O)[C@@]1(O)CC[C@H]2[C@@H]3C[C@H](C)C4=CC(=O)C=C[C@]4(C)[C@@]3(F)[C@@H](O)C[C@@]21C [FLUOROMETHOLONE],> 100,> 100 µM (inactive),> 100 µM (inactive),> 87.3 µM (inactive),> 91.4 µM (inactive),> 100 µM (inactive),> 51.4 µM (inactive),> 93.3 µM (inactive),> 100 µM (inactive),> 100 µM (inactive),> 100 µM (inactive),> 100 µM (inactive),> 100 µM (inactive),> 100 µM (inactive),> 100 µM (inactive),> 100 µM (inactive),> 95.1 µM (inactive),> 100 µM (inactive),> 59.3 µM (inactive),> 100 µM (inactive)
Nc1nc(CC2(O)CCCCC2)cc(-c2ccccc2)n1,> 43.9,> 48.6 µM (inactive),15.6 µM (inactive),> 74 µM (inactive),> 40.3 µM (inactive),25.7 µM (inactive),,27.2 µM (inactive),23.1 µM (inactive),21 µM (inactive),23.4 µM (inactive),17.5 µM (inactive),38.5 µM (inactive),,29.2 µM (inactive),> 63.2 µM (inactive),> 64.4 µM (inactive),,,35.1 µM (inactive)
CC(=O)Oc1c(C)n(CCCl)ccc1=O,34.8,> 100 µM (inactive),> 100 µM (inactive),,> 100 µM (inactive),,,> 100 µM (inactive),> 100 µM (inactive),> 100 µM (inactive),> 100 µM (inactive),57.7 µM (inactive),> 100 µM (inactive),,> 100 µM (inactive),> 100 µM (inactive),> 100 µM (inactive),,,> 100 µM (inactive)
CCCCCc1cc(OC(=O)c2c(O)cc(OC)cc2CCCCC)cc(O)c1C(=O)O,12.6,30.9 µM (inactive),24.9 µM (inactive),16.8 µM (inactive),16 µM (inactive),18.3 µM (inactive),,11.1 µM (inactive),17.3 µM (inactive),16.4 µM (inactive),14.5 µM (inactive),18.5 µM (inactive),16.8 µM (inactive),,20.4 µM (inactive),17.1 µM (inactive),13.2 µM (inactive),,,20 µM (inactive)
O=C(Cc1nc2ccccc2o1)C(=O)Nc1ccccc1C(F)(F)F,> 100,> 100 µM (inactive),> 100 µM (inactive),> 100 µM (inactive),> 100 µM (inactive),> 100 µM (inactive),,> 100 µM (inactive),> 100 µM (inactive),> 100 µM (inactive),> 100 µM (inactive),> 100 µM (inactive),> 100 µM (inactive),,> 100 µM (inactive),,> 100 µM (inactive),,,> 100 µM (inactive)
[N-]=[N+]=CC(=O)CCC(N)C(=O)O (configuration not stated),0.815,4.25 µM (inactive),1.72 µM (inactive),0.482 µM (active),8.18 µM (inactive),2.31 µM (inactive),1.75 µM (inactive),3.01 µM (inactive),0.541 µM (active),2.14 µM (inactive),2.88 µM (inactive),0.226 µM (active),1.28 µM (inactive),1.75 µM (inactive),1.33 µM (inactive),2.8 µM (inactive),1.25 µM (inactive),62.2 µM (inactive),0.741 µM (active),29.9 µM (inactive)
COc1ccc2ccc([Se]c3ccc4ccc(OC)cc4c3)cc2c1,> 100,53.6 µM (inactive),> 100 µM (inactive),> 100 µM (inactive),70 µM (inactive),> 100 µM (inactive),,84.5 µM (inactive),51.9 µM (inactive),49.7 µM (inactive),> 100 µM (inactive),> 100 µM (inactive),74.6 µM (inactive),,> 100 µM (inactive),> 100 µM (inactive),61.1 µM (inactive),,,20.6 µM (inactive)
FC1OC2OC1C(OCc1ccccc1)C(OCc1ccccc1)C2OCc1ccccc1 (configuration not stated),35.7,61.1 µM (inactive),24.9 µM (inactive),> 100 µM (inactive),> 100 µM (inactive),40.6 µM (inactive),,> 10 µM (inactive),49.1 µM (inactive),43.2 µM (inactive),30.1 µM (inactive),42.8 µM (inactive),> 100 µM (inactive),,28.1 µM (inactive),33.4 µM (inactive),32.4 µM (inactive),,,34.1 µM (inactive)
CC#C[C@@]1(O)CCCCC1O (some centres not stated),> 100,> 100 µM (inactive),> 100 µM (inactive),> 100 µM (inactive),> 100 µM (inactive),> 100 µM (inactive),,> 100 µM (inactive),> 100 µM (inactive),> 100 µM (inactive),> 100 µM (inactive),> 100 µM (inactive),> 100 µM (inactive),,> 100 µM (inactive),> 100 µM (inactive),> 100 µM (inactive),,,> 100 µM (inactive)
COc1cccc2c1[C@H]1CO[C@H]3C4C[C@H](C(=O)O)C([C@@H](C2)N13)N4C (some centres not stated),1.67,3.72 µM (inactive),1.62 µM (inactive),1.56 µM (inactive),1.19 µM (inactive),1.98 µM (inactive),0.0423 µM (active),0.294 µM (active),,1.3 µM (inactive),1.12 µM (inactive),3.24 µM (inactive),7.1 µM (inactive),0.0533 µM (active),4.99 µM (inactive),2.1 µM (inactive),1.79 µM (inactive),0.0769 µM (active),,5 µM (inactive)
COC(=O)C(=O)C(CC(=O)Nc1cccc(C(F)(F)F)c1)C(=O)OC (configuration not stated),> 100,> 100 µM (inactive),> 100 µM (inactive),> 100 µM (inactive),> 100 µM (inactive),> 100 µM (inactive),,> 100 µM (inactive),,> 100 µM (inactive),> 100 µM (inactive),> 100 µM (inactive),,,> 100 µM (inactive),> 100 µM (inactive),> 100 µM (inactive),,,> 100 µM (inactive)
